Test results: patent publication US20230159527A1, “COMPOUNDS AS BCL-2 INHIBITORS” (Fochon Pharmaceuticals, Ltd., priority 2020, published 2023)

Legend:
Assay type in all cases: cell-based
RS4;11 cells = assay: Cell proliferation assay, RS4;11 cells (MTS, 72 h); settings: Homo sapiens, RS4;11 cell proliferation
Protocol: MTS testing kit was purchased from Promega. The RPMI-1640, Fetal bovine serum and Penicillin-Streptomycin were purchased from Gibco. Dimethyl sulfoxide (DMSO) was purchased from Sigma.
To investigate whether a compound is able to inhibit the activity of Bcl-2 in cells, a mechanism-based assay using RS4;11 (ATCC® CRL-1873™) cell was developed. In this assay, inhibition of Bcl-2 was detected by the inhibition of RS4;11 cells proliferation. RS4;11 cells were cultured in culture flasks to 40-80% confluence in RPMI-1640 plus 10% fetal bovine serum. Cells were collected and plated onto 96-well plates at desired cell density (30000 cells/well). Plates were incubated overnight at 37° C., with 5% CO2 to adhere. Compounds were added to the plates, and the final compound concentrations were 10000, 3333, 1111, […], 41, 14, 4.6 and 1.5 nM. Plates plated with RS4;11 cells were placed at 37° C., with 5% CO2 for 72 h. 20 μl MTS/100 μl medium mixture solution were added to each well and incubate the plates for exactly 2 hours. The reaction was stopped by adding 25 μl 10% SDS per well. Measure absorbance at 490 nm and 650 nm (reference wavelength). IC50 was calculated using GraphPad Prism 5.0.

DoHH2 cells = assay: Cell proliferation assay, DoHH2 cells (MTS, 120 h); settings: Homo sapiens, DOHH-2
In short: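 DoHH2 cells in RPMI-1640 with 10% FBS were plated at 5000/well and rested 4 h. They were then exposed to compound at nine final concentrations (10000 to 1.5 nM) for 120 h at 37 °C. Viability was read by MTS (2 h, A490) and IC50 derived by curve fitting.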

Toledo cells = assay: Cell proliferation assay, Toledo cells (MTS, 72 h); settings: Homo sapiens, Toledo cells, MTS, read-out: Toledo IC50
In short: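 IC50 was derived from 490 nm absorbance after a 2 h MTS step. Before that, compounds at 1.5–10000 nM final (nine points) acted on Toledo cells for 72 h at 37 °C, 5% CO2. Cells were seeded at 30000/well in 10% FBS RPMI-1640 and rested 4 h before dosing.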

| IC50 (RS4;11 cells) | Compound | IC50 (DoHH2 cells) | IC50 (Toledo cells) |
| --- | --- | --- | --- |
| ≤ 1 nM | CC(C)c1ccccc1[C@H]1CCCN1C1CC2(CCN(c3ccc(C(=O)NS(=O)(=O)c4cnc(NC[C@H]5CC[C@@](C)(O)CC5)c([N+](=O)[O-])c4)c(Oc4cnc5[nH]ccc5c4)c3)CC2)C1 [Example A-7a, 2-((1H-pyrrolo[2,3-b]pyridin-5-yl)oxy)-N-((6-((((1s,4s)-4-hydroxy-4-methylcyclohexyl)methyl)amino)-5-nitropyridin-3-yl)sulfonyl)-4-(2-((R)-2-(2-isopropylphenyl)pyrrolidin-1-yl)-7-azaspiro[3.5]nonan-7-yl)benzamide] | ≤ 1 nM | 1 nM |
| ≤ 1 nM | CC(C)c1ccccc1[C@@H]1COCCN1C1CC2(CCN(c3ccc(C(=O)NS(=O)(=O)c4cnc(NC[C@H]5CC[C@](C)(O)CC5)c([N+](=O)[O-])c4)c(Oc4cnc5[nH]ccc5c4)c3)CC2)C1 (single isomer, unassigned) [Example A-56b, 2-((1H-pyrrolo[2,3-b]pyridin-5-yl)oxy)-N-((6-((((1r,4r)-4-hydroxy-4-methylcyclohexyl)methyl)amino)-5-nitropyridin-3-yl)sulfonyl)-4-(2-((R or S)-3-(2-isopropylphenyl)morpho-lino)-7-azaspiro[3.5]nonan-7-yl) benzamide] | ≤ 1 nM | 1 nM |
| ≤ 1 nM | O=C(NS(=O)(=O)c1cc2c(c([N+](=O)[O-])c1)O[C@H](CN1CCOCC1)CO2)c1ccc(N2CCC3(CC2)CC(N2CCC[C@H]2c2ccccc2C2CC2)C3)cc1Oc1cnc2[nH]ccc2c1 (single isomer, unassigned) [Example E-38, 2-((1H-pyrrolo [2,3-b]pyridin-5-yl)oxy)-4-(2-((R or S)-2-(2-cyclopropylphenyl)pyrrolidin-1-yl)-7-azaspiro[3.5]nonan-7-yl)-N-(((R)-2-(morpholinomethyl)-8-nitro-2,3-dihydrobenzo [b][1,4]dioxin-6-yl)sulfonyl) benzamide] | ≤ 1 nM | 1 nM |
| ≤ 1 nM | CN1CCN(C2CC3(CCN(c4ccc(C(=O)NS(=O)(=O)c5cnc(NC[C@H]6CC[C@](C)(O)CC6)c([N+](=O)[O-])c5)c(Oc5cnc6[nH]ccc6c5)c4)CC3)C2)[C@H](c2ccccc2C2CC2)C1 (single isomer, unassigned) [Example A-40, 2-((1H-pyrrolo[2,3-b]pyridin-5-yl)oxy)-4-(2-((R or S)-2-(2-cyclopropylphenyl)-4-methylpiperazin-1-yl)-7-azaspiro[3.5]nonan-7-yl)-N-((6-((((1r,4r)-4-hydroxy-4-methylcyclohexyl)methyl)amino)-5-nitropyridin-3-yl)sulfonyl)benzamide] | ≤ 1 nM | 1 nM |
| ≤ 1 nM | CC(C)c1ccccc1[C@H]1CCCN1C1CC2(CCN(c3ccc(C(=O)NS(=O)(=O)c4cnc(NCC5CCC(N=S(C)(C)=O)CC5)c([N+](=O)[O-])c4)c(Oc4cnc5[nH]ccc5c4)c3)CC2)C1 (stereo partly drawn) [Example A-10b, (R)-2-((1H-pyrrolo[2,3-b]pyridin-5-yl)oxy)-N-((6-(((4-((dimethyl (oxo)-λ^6-sulfanylidene)amino)cyclo-hexyl)methyl)amino)-5-nitropyridin-3-yl)sulfonyl)-4-(2-(2-(2-isopropyl-phenyl)pyrrolidin-1-yl)-7-azaspiro [3.5]nonan-7-yl)benzamide] | ≤ 1 nM | – |
| ≤ 1 nM | CCS(=O)(CC)=NC1CCC(CNc2ncc(S(=O)(=O)NC(=O)c3ccc(N4CCC5(CC4)CC(N4CCC[C@@H]4c4ccccc4C4CC4)C5)cc3Oc3cnc4[nH]ccc4c3)cc2[N+](=O)[O-])CC1 (stereo partly drawn) [Example A-2b, (R)-2-((1H-pyrrolo[2,3-b]pyridin-5-yl)oxy)-4-(2-(2-(2-cyclopropylphenyl)pyrrolidin-1-yl)-7-azaspiro[3.5]nonan-7-yl)-N-((6-(((4-((diethyl(oxo)-λ^6-sulfanylidene)amino)cyclohexyl)methyl)amino)-5-nitropyridin-3-yl)sulfonyl)benzamide] | ≤ 1 nM | – |
| ≤ 1 nM | CC(C)c1ccccc1C1CCCN1C1CC2(CCN(c3ccc(C(=O)NS(=O)(=O)c4cc([N+](=O)[O-])c5c(n4)OC[C@H](C4CC4)N5)c(Oc4cnc5[nH]ccc5c4)c3)CC2)C1 (single isomer, unassigned) [Example B-31a, 2-((1H-pyrrolo[2,3-b]pyridin-5-yl)oxy)-N-(((S)-2-cyclopropyl-8-nitro-2,3-dihydro-1H-pyrido[2,3-b] [1,4]oxazin-6-yl)sulfonyl)-4-(2-((R or S)-2-(2-isopropylphenyl)pyrrolidin-1-yl)-7-azaspiro[3.5]nonan-7-yl)benzamide] | ≤ 1 nM | – |
| ≤ 1 nM | CC(C)c1ccccc1[C@@H]1CCCN1C1CC2(CCN(c3ccc(C(=O)NS(=O)(=O)c4cc([N+](=O)[O-])c5c(n4)OC[C@H](Cc4ccccn4)N5)c(Oc4cnc5[nH]ccc5c4)c3)CC2)C1 (single isomer, unassigned) [Example B-38, 2-((1H-pyrrolo[2,3-b]pyridin-5-yl)oxy)-4-(2-((R or S)-2-(2-isopropylphenyl)pyrrolidin-1-yl)-7-azaspiro[3.5]nonan-7-yl)-N-(((S)-8-nitro-2-(pyridin-2-ylmethyl)-2,3-dihydro-1H-pyrido [2,3-b][1,4]oxazin-6-yl)sulfonyl) benzamide] | ≤ 1 nM | – |
| ≤ 1 nM | O=C(NS(=O)(=O)c1cnc(NCC2(F)CCOCC2)c([N+](=O)[O-])c1)c1ccc(N2CCC3(CC2)CC(N2CCC[C@H]2c2ccccc2C2CC2)C3)cc1Oc1cnc2[nH]ccc2c1 [Example A-32a, (S)-2-((1H-pyrrolo[2,3-b]pyridin-5-yl)oxy)-4-(2-(2-(2-cyclopropyl-phenyl)pyrrolidin-1-yl)-7-azaspiro [3.5]nonan-7-yl)-N-((6-(((4-fluoro-tetrahydro-2H-pyran-4-yl)methyl)amino)-5-nitropyridin-3-yl)sulfonyl)benzamide] | ≤ 1 nM | – |
| ≤ 1 nM | O=C(NS(=O)(=O)c1cc([N+](=O)[O-])c2c(n1)OC[C@H](Cc1ccccn1)N2)c1ccc(N2CCC3(CC2)CC(N2CCC[C@H]2c2ccccc2C2CC2)C3)cc1Oc1cnc2[nH]ccc2c1 (single isomer, unassigned) [Example B-45, 2-((1H-pyrrolo[2,3-b]pyridin-5-yl)oxy)-4-(2-((R or S)-2-(2-cyclopropylphenyl)pyrrolidin-1-yl)-7-azaspiro[3.5]nonan-7-yl)-N-(((S)-8-nitro-2-(pyridin-2-ylmethyl)-2,3-dihydro-1H-pyrido [2,3-b][1,4]oxazin-6-yl)sulfonyl) benzamide] | ≤ 1 nM | – |
| ≤ 1 nM | CCS(=O)(CC)=NC1CCC(CNc2ncc(S(=O)(=O)NC(=O)c3ccc(N4CCC5(CC4)CC(N4CCC[C@@H]4c4ccccc4C(C)C)C5)cc3Oc3cnc4[nH]ccc4c3)cc2[N+](=O)[O-])CC1 (single isomer, unassigned) [Example A-13b, (R or S)-2-((1H-pyrrolo[2,3-b]pyridin-5-yl)oxy)-N-((6-(((4-((diethyl(oxo)-λ^6-sulfanylidene)amino)cyclohexyl)methyl)amino)-5-nitropyridin-3-yl)sulfonyl)-4-(2-(2-(2-isopropyl-phenyl)pyrrolidin-1-yl)-7-azaspiro [3.5]nonan-7-yl)benzamide] | ≤ 1 nM | – |
| ≤ 1 nM | O=C(NS(=O)(=O)c1cnc(NCC2CCOCC2)c([N+](=O)[O-])c1)c1ccc(N2CCC3(CC2)CC(N2CCOC[C@H]2c2ccccc2C2CC2)C3)cc1Oc1cnc2[nH]ccc2c1 (single isomer, unassigned) [Example A-75, (R or S)-2-((1H-pyrrolo[2,3-b]pyridin-5-yl)oxy)-4-(2-(3-(2-cyclopropyl-phenyl)morpholino)-7-azaspiro[3.5]nonan-7-yl)-N-((5-nitro-6-(((tetra-hydro-2H-pyran-4-yl)methyl)amino)pyridin-3-yl)sulfonyl) benzamide] | ≤ 1 nM | – |
| ≤ 1 nM | O=C(NS(=O)(=O)c1cc([N+](=O)[O-])c(NCC2CCOCC2)cn1)c1ccc(N2CCC3(CC2)CC(N2CCC[C@@H]2c2ccccc2C2CC2)C3)cc1Oc1cnc2[nH]ccc2c1 [Example B-1b, (R)-2-((1H-pyrrolo[2,3-b]pyridin-5-yl)oxy)-4-(2-(2-(2-cyclopropylphenyl)pyrrolidin-1-yl)-7-azaspiro[3.5]nonan-7-yl)-N-((4-nitro-5-(((tetrahydro-2H-pyran-4-yl)methyl)amino)pyridin-2-yl)sulfonyl)benzamide] | ≤ 1 nM | – |
| ≤ 1 nM | O=C(NS(=O)(=O)c1cnc(NCC2(F)CCOCC2)c([N+](=O)[O-])c1)c1ccc(N2CCC3(CC2)CC(N2CCC[C@@H]2c2ccccc2C2CC2)C3)cc1Oc1cnc2[nH]ccc2c1 [Example A-32b, (R)-2-((1H-pyrrolo[2,3-b]pyridin-5-yl)oxy)-4-(2-(2-(2-cyclopropyl-phenyl)pyrrolidin-1-yl)-7-azaspiro [3.5]nonan-7-yl)-N-((6-(((4-fluoro-tetrahydro-2H-pyran-4-yl)methyl)amino)-5-nitropyridin-3-yl)sulfonyl)benzamide] | ≤ 1 nM | – |
